Data taken from article PMC7862291, “Full-length in meso structure and mechanism of rat kynurenine 3-monooxygenase inhibition” (Communications Biology, 2021).
“And” between values parts separate entries of the source, which are not always exact repeats. Identical values can stand only once. Like-named read-outs stand apart in the source and are kept apart here. Each block holds one compound with its values, some of them ahead of it.

Assays:
KMO [1] = test system: KMO; parameters: method as in ref 27 Jacobs et al; conditions: 600 μM kynurenine, recombinant protein, fluorescence; ref 27 Jacobs et al; cited from earlier work
KMO [2] = test system: KMO; parameters: method as in ref 20 Winkler et al; conditions: 100 kynurenine, CHO cells, LC/MS; ref 20 Winkler et al; read-out: cellular IC50 (Winkler et al); cited from earlier work
[3] = target: T1, HEK293 cells stably expressing rat KMO (Rattus norvegicus, UniProt O88867); experiment: Cell-based rat KMO inhibition assay (LC/MS of 3-hydroxykynurenine); conditions: duplicates
T1 construct: expressed in transfected cells
Method: (§1) HEK293 cells stably expressing human or rat KMO were maintained in DMEM containing 10% fetal bovine serum, 50 units/mL penicillin, 50 μg/mL streptomycin and 0.2 mg⁄mL zeocine. […] After 2 overnights, the medium was replaced with 10 μL/well of assay buffer (1 × HBSS containing 20 mM HEPES). Ten microliters per well of the diluted test compounds (final, 0–30 μM, 0.3% DMSO) were added to the respective wells. After ~30 min of pre-incubation at 37 °C, reactions were started by adding 20 μL of substrate solution containing 0.2 mM kynurenine. Reactions were run for 2 h at 37 °C, the assay buffer was discarded and the plate was immediately frozen and stored at −30 °C until LC/MS analysis.
(§2) An 80 µL volume of cold acetonitrile with 2% formic acid was added to the cell pellet in a 384-well plate and centrifuged at 3000 rpm for 10 min at 4 °C. A 40 µL volume of the supernatant was transferred to a new 384-well plate and evaporated to dryness under nitrogen gas at 45 °C. The residue was reconstituted in 100 µL of acetonitrile/water (10:90, v/v) with 0.1% formic acid, and 1 µL was injected into the LC-MS/MS system.
(§3) LC/MS/MS was performed on a Shimadzu UFLC Nexera X2 (Shimadzu Corporation, Japan) and an QTRAP® 5500 LC-MS/MS System (SCIEX, Framingham, USA). Chromatographic separation was performed using an Allure PFP Propyl analytical column (5 µm, 2.1 × 100 mm) maintained at 50 °C. The autosampler temperature was set at 15 °C. The mobile phase consisted of formic acid/water/acetonitrile/methanol (0.5/500/250/250, v/v/v/v) and the flow rate was set at 0.3 mL/min. 3-hydroxykynurenine was eluted from the LC column at a retention time of 1.2 min. The MS system was operated using electrospray ionization (ESI) in positive mode. The optimum conditions were curtain gas, 20 psi; ion spray voltage, 5500 V; heated nebulizer temperature (TEM), 700 °C; nebulizing gas (GS1), 70 psi; and heater gas (GS2), 70 psi. […] Analyst® software (SCIEX, Framingham, USA) was used for system control and MultiQuant™ Software (SCIEX, Framingham, USA) was used for data analysis.
(§4) Compound assays were analysed and plotted on graphs using Prism (GraphPad Software Inc. San Diego, CA, USA).

hKMO = target: T2, hKMO (Homo sapiens, UniProt O15229); experiment: Human KMO enzyme (cell-free) assay, NADPH consumption by absorbance; assay type: biochemical
T2 construct: purchased Origene
Method: (§5) Human KMO was purchased from Origene and used to assay compounds. Full-length Rat-KMO purified for crystallisation was used to assay compounds. Full-length Rat-KMO-expressing membranes were used for mutant assays (Fig. 4b) only. […] Images were taken using Odyssey CLX (LI-COR Biosciences) and quantified using ImageStudio2.0 (LI-COR Biosciences) software.
(§6) Test compounds were dissolved in DMSO and diluted with assay buffer containing 50 mM HEPES, 2 mM MgCl2, 0.5 mM EGTA, 1 mM DTT, 0.05% Tween20 and 0.005% of antiform SI (pH = about 7.9) to prepare a 4% DMSO solution. […] After 5 min of pre-incubation, reactions were started by adding 10 μL of substrate solution containing 2.4 mM kynurenine and 0.6 mM NADPH. Reactions were run for 90 min at 30 °C, then terminated by adding 5 μL of stop buffer (40 mM maleimide, 2 mM WST-9 and 0.1 mM 1-methoky PMS in water). […] Liposomal assays were performed in the same manner except that the composition of the assay buffer was changed (phosphate-buffered saline, 2 mM MgCl2, 1 mM DTT, 0.05% Tween 20).
as §4

[4] = target: T3, HEK293 cells stably expressing human KMO (Homo sapiens, UniProt O15229); experiment: Cell-based human KMO inhibition assay (LC/MS of 3-hydroxykynurenine); conditions: for inhibition rate, Hs-KMO cellular assay (Figure 1C source data): duplicates
T3 construct: expressed in transfected cells
Method: as §1, §2, §3, §4

Rat KMO = target: T4, Rat KMO (Rattus norvegicus, UniProt O88867); experiment: Rat KMO enzyme (cell-free) assay, NADPH consumption by absorbance; assay type: biochemical
T4 construct: The GST-tagged full-length KMO (1-478) baculovirus vector contained a thrombin cleavage site; GST (thrombin cleavage site between GST and KMO) (N, cleaved yes); made in house; host or cells: Spodoptera frugiperda (Sf9), baculovirus
Method: as §5, §6, §4

T3 sequence (O15229 whole entry): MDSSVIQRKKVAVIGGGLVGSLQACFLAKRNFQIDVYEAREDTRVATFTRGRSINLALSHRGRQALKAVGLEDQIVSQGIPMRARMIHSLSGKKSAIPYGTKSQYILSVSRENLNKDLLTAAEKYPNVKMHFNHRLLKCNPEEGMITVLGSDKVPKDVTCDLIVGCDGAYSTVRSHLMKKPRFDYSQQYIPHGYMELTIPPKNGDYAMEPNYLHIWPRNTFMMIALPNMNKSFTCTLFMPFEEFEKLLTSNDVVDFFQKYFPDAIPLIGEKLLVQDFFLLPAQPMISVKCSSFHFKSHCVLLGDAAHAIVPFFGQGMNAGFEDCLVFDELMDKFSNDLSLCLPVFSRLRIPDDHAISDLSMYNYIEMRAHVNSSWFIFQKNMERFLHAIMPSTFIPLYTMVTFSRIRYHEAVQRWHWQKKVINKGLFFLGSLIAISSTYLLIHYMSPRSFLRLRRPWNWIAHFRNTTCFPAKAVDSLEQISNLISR
T2 sequence (O15229 whole entry): as above
T4 sequence (O88867 whole entry): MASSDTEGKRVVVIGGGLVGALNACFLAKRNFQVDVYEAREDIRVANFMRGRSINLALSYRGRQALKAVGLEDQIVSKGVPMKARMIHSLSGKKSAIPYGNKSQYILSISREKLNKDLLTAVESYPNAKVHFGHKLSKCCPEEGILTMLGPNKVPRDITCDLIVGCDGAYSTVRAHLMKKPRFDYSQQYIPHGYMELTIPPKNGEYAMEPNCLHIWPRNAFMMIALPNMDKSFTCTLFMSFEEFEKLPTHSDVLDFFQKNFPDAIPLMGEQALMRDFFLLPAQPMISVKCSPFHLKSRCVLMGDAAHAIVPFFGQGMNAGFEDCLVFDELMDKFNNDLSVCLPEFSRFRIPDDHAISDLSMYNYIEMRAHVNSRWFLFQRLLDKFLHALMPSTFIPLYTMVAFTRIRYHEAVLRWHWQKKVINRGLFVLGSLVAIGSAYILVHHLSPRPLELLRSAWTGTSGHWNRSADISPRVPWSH
T1 sequence (O88867 whole entry): as above

SMILES: COc1ccc(S(=O)(=O)Nc2nc(-c3cccc([N+](=O)[O-])c3)cs2)cc1OC [Ro 61-8048, reference compound]
IC50 (KMO [1]): 780 ± 1000 nM
IC50 (KMO [2]): 640 nM
inhibition rate, Rat-KMO cellular assay (Figure 1D source data) ([3]; conc 0.03 μM): 12.914% and 13.940%
inhibition rate, Rat-KMO cellular assay (Figure 1D source data) ([3]; conc 0.1 μM): 6.038% and 6.971%
inhibition rate, Rat-KMO cellular assay (Figure 1D source data) ([3]; conc 0.3 μM): 6.605% and 2.668%
inhibition rate, Rat-KMO cellular assay (Figure 1D source data) ([3]; conc 1 μM): 18.248% and 25.802%
inhibition rate, Rat-KMO cellular assay (Figure 1D source data) ([3]; conc 3 μM): 86.872% and 86.727%
inhibition rate, Rat-KMO cellular assay (Figure 1D source data) ([3]; conc 10 μM): 97.726% and 97.601%
inhibition rate, Rat-KMO cellular assay (Figure 1D source data) ([3]; conc 30 μM): 99.995% and 100.184%
IC50 (hKMO; 1200 μM kynurenine, recombinant protein, absorbance, species not given, read-out: IC50 (cell-free assay, this study)): 1400 nM
inhibition rate, Hs-KMO cell-free assay (Figure 1A source data) (hKMO; conc 0.03 μM, duplicates): 7.785% and 11.650%
inhibition rate, Hs-KMO cell-free assay (Figure 1A source data) (hKMO; conc 0.1 μM, duplicates): 5.377% and 7.729%
inhibition rate, Hs-KMO cell-free assay (Figure 1A source data) (hKMO; conc 0.3 μM, duplicates): 12.406% and 14.871%
inhibition rate, Hs-KMO cell-free assay (Figure 1A source data) (hKMO; conc 1 μM, duplicates): 37.359% and 37.779%
inhibition rate, Hs-KMO cell-free assay (Figure 1A source data) (hKMO; conc 3 μM, duplicates): 72.366% and 74.382%
inhibition rate, Hs-KMO cell-free assay (Figure 1A source data) (hKMO; conc 10 μM, duplicates): 94.630%
inhibition rate, Hs-KMO cell-free assay (Figure 1A source data) (hKMO; conc 30 μM, duplicates): 102.611% and 104.600%
inhibition rate, Hs-KMO cell-free assay (Figure 1A source data) (hKMO; conc 100 μM, duplicates): 98.579% and 94.322%
IC50 ([4]; 100 μM kynurenine, HEK293, LC/MS, species not given, read-out: cellular IC50 (this study)): 1200 nM
inhibition rate, Hs-KMO cellular assay (Figure 1C source data) ([4]; conc 0.03 μM): 4.914% and 11.092%
inhibition rate, Hs-KMO cellular assay (Figure 1C source data) ([4]; conc 0.1 μM): 7.800% and 13.947%
inhibition rate, Hs-KMO cellular assay (Figure 1C source data) ([4]; conc 0.3 μM): 9.982% and 16.379%
inhibition rate, Hs-KMO cellular assay (Figure 1C source data) ([4]; conc 1 μM): 34.540% and 30.293%
inhibition rate, Hs-KMO cellular assay (Figure 1C source data) ([4]; conc 3 μM): 100.863% and 99.409%
inhibition rate, Hs-KMO cellular assay (Figure 1C source data) ([4]; conc 10 μM): 104.869% and 104.896%
inhibition rate, Hs-KMO cellular assay (Figure 1C source data) ([4]; conc 30 μM): 105.453%
inhibition rate, Rat-KMO cell-free assay (Figure 1B source data) (Rat KMO; conc 0.03 μM, duplicates): 9.186% and 13.905%
inhibition rate, Rat-KMO cell-free assay (Figure 1B source data) (Rat KMO; conc 0.1 μM, duplicates): 21.990% and 21.221%
inhibition rate, Rat-KMO cell-free assay (Figure 1B source data) (Rat KMO; conc 0.3 μM, duplicates): 47.520% and 47.997%
inhibition rate, Rat-KMO cell-free assay (Figure 1B source data) (Rat KMO; conc 1 μM, duplicates): 71.114% and 72.121%
inhibition rate, Rat-KMO cell-free assay (Figure 1B source data) (Rat KMO; conc 3 μM, duplicates): 77.185% and 81.347%
inhibition rate, Rat-KMO cell-free assay (Figure 1B source data) (Rat KMO; conc 10 μM, duplicates): 87.099% and 89.538%
inhibition rate, Rat-KMO cell-free assay (Figure 1B source data) (Rat KMO; conc 30 μM, duplicates): 98.075% and 95.980%
inhibition rate, Rat-KMO cell-free assay (Figure 1B source data) (Rat KMO; conc 100 μM, duplicates): 89.963% and 91.580%

IC50 (hKMO; cell-free enzyme assay, high kynurenine, read-out: Human KMO IC50): 14 nM
inhibition at 0.0003 µM (hKMO; conc 0.0003 μM, duplicates, read-out: inhibition rate, Hs-KMO cell-free assay (Figure 1A source data)): 8.45%
inhibition rate, Hs-KMO cell-free assay (Figure 1A source data) (hKMO; conc 0.001 μM, duplicates): 6.826%
inhibition at 0.001 µM (hKMO; conc 0.001 μM, duplicates, read-out: inhibition rate, Hs-KMO cell-free assay (Figure 1A source data)): 4.54%
inhibition rate, Hs-KMO cell-free assay (Figure 1A source data) (hKMO; conc 0.003 μM, duplicates): 16.103%
inhibition at 0.003 µM (hKMO; conc 0.003 μM, duplicates, read-out: inhibition rate, Hs-KMO cell-free assay (Figure 1A source data)): 15.5%
inhibition rate, Hs-KMO cell-free assay (Figure 1A source data) (hKMO; conc 0.01 μM, duplicates): 39.429%
inhibition at 0.01 µM (hKMO; conc 0.01 μM, duplicates, read-out: inhibition rate, Hs-KMO cell-free assay (Figure 1A source data)): 34.9%
inhibition rate, Hs-KMO cell-free assay (Figure 1A source data) (hKMO; conc 0.03 μM, duplicates): 71.311%
inhibition at 0.03 µM (hKMO; conc 0.03 μM, duplicates, read-out: inhibition rate, Hs-KMO cell-free assay (Figure 1A source data)): 74.2%
inhibition rate, Hs-KMO cell-free assay (Figure 1A source data) (hKMO; conc 0.1 μM, duplicates): 87.583%
inhibition at 0.1 µM (hKMO; conc 0.1 μM, duplicates, read-out: inhibition rate, Hs-KMO cell-free assay (Figure 1A source data)): 92.8%
inhibition rate, Hs-KMO cell-free assay (Figure 1A source data) (hKMO; conc 0.3 μM, duplicates): 98.840%
inhibition at 0.3 µM (hKMO; conc 0.3 μM, duplicates, read-out: inhibition rate, Hs-KMO cell-free assay (Figure 1A source data)): 106%
inhibition rate, Hs-KMO cell-free assay (Figure 1A source data) (hKMO; conc 1 μM, duplicates): 98.570%
inhibition at 1 µM (hKMO; conc 1 μM, duplicates, read-out: inhibition rate, Hs-KMO cell-free assay (Figure 1A source data)): 104%
IC50 (Rat KMO; cell-free enzyme assay, high kynurenine): 17 nM
inhibition rate, Rat-KMO cell-free assay (Figure 1B source data) (Rat KMO; conc 0.0003 μM, duplicates): 10.786%
inhibition at 0.0003 µM (Rat KMO; conc 0.0003 μM, duplicates, read-out: inhibition rate, Rat-KMO cell-free assay (Figure 1B source data)): 11.1%
inhibition rate, Rat-KMO cell-free assay (Figure 1B source data) (Rat KMO; conc 0.001 μM, duplicates): 13.043%
inhibition at 0.001 µM (Rat KMO; conc 0.001 μM, duplicates, read-out: inhibition rate, Rat-KMO cell-free assay (Figure 1B source data)): 12.6%
inhibition rate, Rat-KMO cell-free assay (Figure 1B source data) (Rat KMO; conc 0.003 μM, duplicates): 19.707%
inhibition at 0.003 µM (Rat KMO; conc 0.003 μM, duplicates, read-out: inhibition rate, Rat-KMO cell-free assay (Figure 1B source data)): 21.2%
inhibition rate, Rat-KMO cell-free assay (Figure 1B source data) (Rat KMO; conc 0.01 μM, duplicates): 32.767%
inhibition at 0.01 µM (Rat KMO; conc 0.01 μM, duplicates, read-out: inhibition rate, Rat-KMO cell-free assay (Figure 1B source data)): 33%
inhibition rate, Rat-KMO cell-free assay (Figure 1B source data) (Rat KMO; conc 0.03 μM, duplicates): 60.579%
inhibition at 0.03 µM (Rat KMO; conc 0.03 μM, duplicates, read-out: inhibition rate, Rat-KMO cell-free assay (Figure 1B source data)): 60.5%
inhibition rate, Rat-KMO cell-free assay (Figure 1B source data) (Rat KMO; conc 0.1 μM, duplicates): 80.975%
inhibition at 0.1 µM (Rat KMO; conc 0.1 μM, duplicates, read-out: inhibition rate, Rat-KMO cell-free assay (Figure 1B source data)): 83%
inhibition rate, Rat-KMO cell-free assay (Figure 1B source data) (Rat KMO; conc 0.3 μM, duplicates): 95.593%
inhibition at 0.3 µM (Rat KMO; conc 0.3 μM, duplicates, read-out: inhibition rate, Rat-KMO cell-free assay (Figure 1B source data)): 101%
inhibition rate, Rat-KMO cell-free assay (Figure 1B source data) (Rat KMO; conc 1 μM, duplicates): 93.954%
inhibition at 1 µM (Rat KMO; conc 1 μM, duplicates, read-out: inhibition rate, Rat-KMO cell-free assay (Figure 1B source data)): 97.8%
SMILES: COc1ccc2c(c1)CN(c1nc(C(=O)N(C)c3cc(Cl)c(F)cc3C(=O)O)c(Cl)s1)C2 [Compound 4]
